Key:
Experiment in all cases: relative viability (nuclei count vs DMSO), 5 days (fraction); higher = more cells survive
[1] = test system: COR-L23
In short: (§1)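 Relative viability divides the nuclei count in treated wells by that in vehicle wells. Lung cancer cell lines were seeded in 1536-well plates, dosed by pin tool the next day, and fixed and stained after 5 days in one step with final 0.05% Triton X-100, 1% formaldehyde and 1 ug/ml Hoechst. Dosing was a single drug or a fixed anchor-drug dose plus five library-drug doses (not always all listed) in √10 steps, and values are medians of duplicate plates imaged at 4×.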

[2] = test system: EMC-BAC-2
In short: as §1

[3] = test system: HARA
In short: as §1

[4] = test system: NCI-H2405
In short: as §1

[5] = test system: UMC-11
In short: as §1

[6] = test system: ChaGo-K-1
In short: as §1

[7] = test system: SK-LU-1
In short: as §1

[8] = test system: HCC-78
In short: as §1

[9] = test system: NCI-H1793
In short: as §1

[10] = test system: A-427
In short: as §1

[11] = test system: NCI-H2228
In short: as §1

[12] = test system: NCI-H1944
In short: as §1

[13] = test system: NCI-H23
In short: as §1

[14] = test system: HCC-15
In short: as §1

[15] = test system: HCC-366
In short: as §1

[16] = test system: NCI-H2023
In short: as §1

[17] = test system: NCI-H1734
In short: as §1

[18] = test system: LC-2-ad
In short: as §1

[19] = test system: NCI-H2009
In short: as §1

[20] = test system: NCI-H2126
In short: as §1

[21] = test system: NCI-H1993
In short: as §1

[22] = test system: NCI-H838
In short: as §1

## CC1(C)CCC(c2ccc(Cl)cc2)=C(CN2CCN(c3ccc(C(=O)NS(=O)(=O)c4ccc(N[C@H](CCN5CCOCC5)CSc5ccccc5)c(S(=O)(=O)C(F)(F)F)c4)cc3)CC2)C1 [Navitoclax] + CC(=O)Nc1cccc(-n2c(=O)n(C3CC3)c(=O)c3c(Nc4ccc(I)cc4F)n(C)c(=O)c(C)c32)c1 [Trametinib] (partner 0.02 µM)
[1]; first compound 0.005 µM
  relative viability: 0.6
[1]; first compound 0.01581 µM
  relative viability: 0.601
[1]; first compound 0.05 µM
  relative viability: 0.514
[1]; first compound 0.1581 µM
  relative viability: 0.577
[1]; first compound 0.5 µM
  relative viability: 0.61
[2]; first compound 0.005 µM
  relative viability: 0.728
[2]; first compound 0.01581 µM
  relative viability: 0.87
[2]; first compound 0.05 µM
  relative viability: 0.866
[2]; first compound 0.1581 µM
  relative viability: 0.848
[2]; first compound 0.5 µM
  relative viability: 0.806
[3]; first compound 0.005 µM
  relative viability: 0.44
[3]; first compound 0.01581 µM
  relative viability: 0.638
[3]; first compound 0.05 µM
  relative viability: 0.917
[3]; first compound 0.1581 µM
  relative viability: 0.587
[3]; first compound 0.5 µM
  relative viability: 1.06
[4]; first compound 0.005 µM
  relative viability: 0.535
[4]; first compound 0.01581 µM
  relative viability: 0.75
[4]; first compound 0.05 µM
  relative viability: 0.67
[4]; first compound 0.1581 µM
  relative viability: 0.596
[4]; first compound 0.5 µM
  relative viability: 0.661
[5]; first compound 0.005 µM
  relative viability: 0.658
[5]; first compound 0.01581 µM
  relative viability: 0.703
[5]; first compound 0.05 µM
  relative viability: 0.483
[5]; first compound 0.1581 µM
  relative viability: 0.574
[5]; first compound 0.5 µM
  relative viability: 0.321
[6]; first compound 0.005 µM
  relative viability: 0.812
[6]; first compound 0.01581 µM
  relative viability: 0.859
[6]; first compound 0.05 µM
  relative viability: 0.451
[6]; first compound 0.1581 µM
  relative viability: 0.904
[6]; first compound 0.5 µM
  relative viability: 0.837
[7]; first compound 0.005 µM
  relative viability: 0.716
[7]; first compound 0.01581 µM
  relative viability: 0.57
[7]; first compound 0.05 µM
  relative viability: 0.296
[7]; first compound 0.1581 µM
  relative viability: 0.601
[7]; first compound 0.5 µM
  relative viability: 0.433
[8]; first compound 0.005 µM
  relative viability: 0.653
[8]; first compound 0.01581 µM
  relative viability: 0.826
[8]; first compound 0.05 µM
  relative viability: 0.59
[8]; first compound 0.1581 µM
  relative viability: 0.727
[8]; first compound 0.5 µM
  relative viability: 0.727
[9]; first compound 0.005 µM
  relative viability: 0.373
[9]; first compound 0.01581 µM
  relative viability: 0.439
[9]; first compound 0.1581 µM
  relative viability: 0.467
[9]; first compound 0.5 µM
  relative viability: 0.402
[10]; first compound 0.005 µM
  relative viability: 0.724
[10]; first compound 0.01581 µM
  relative viability: 0.714
[10]; first compound 0.05 µM
  relative viability: 0.624
[10]; first compound 0.1581 µM
  relative viability: 0.599
[10]; first compound 0.5 µM
  relative viability: 0.652
[11]; first compound 0.005 µM
  relative viability: 0.476
[11]; first compound 0.01581 µM
  relative viability: 0.802
[11]; first compound 0.1581 µM
  relative viability: 0.511
[11]; first compound 0.5 µM
  relative viability: 0.491
[12]; first compound 0.005 µM
  relative viability: 0.414
[12]; first compound 0.01581 µM
  relative viability: 0.407
[12]; first compound 0.1581 µM
  relative viability: 0.422
[12]; first compound 0.5 µM
  relative viability: 0.373
[13]; first compound 0.005 µM
  relative viability: 0.338
[13]; first compound 0.01581 µM
  relative viability: 0.436
[13]; first compound 0.05 µM
  relative viability: 0.443
[13]; first compound 0.1581 µM
  relative viability: 0.357
[13]; first compound 0.5 µM
  relative viability: 0.412
[14]; first compound 0.005 µM
  relative viability: 0.329
[14]; first compound 0.01581 µM
  relative viability: 0.432
[14]; first compound 0.05 µM
  relative viability: 0.332
[14]; first compound 0.1581 µM
  relative viability: 0.401
[14]; first compound 0.5 µM
  relative viability: 0.35
[15]; first compound 0.005 µM
  relative viability: 0.319
[15]; first compound 0.01581 µM
  relative viability: 0.419
[15]; first compound 0.1581 µM
  relative viability: 0.351
[15]; first compound 0.5 µM
  relative viability: 0.288
[16]; first compound 0.005 µM
  relative viability: 0.556
[16]; first compound 0.01581 µM
  relative viability: 0.724
[16]; first compound 0.05 µM
  relative viability: 0.554
[16]; first compound 0.1581 µM
  relative viability: 0.5
[16]; first compound 0.5 µM
  relative viability: 0.547
[17]; first compound 0.005 µM
  relative viability: 0.644
[17]; first compound 0.01581 µM
  relative viability: 0.776
[17]; first compound 0.1581 µM
  relative viability: 0.625
[17]; first compound 0.5 µM
  relative viability: 0.646
[18]; first compound 0.005 µM
  relative viability: 0.861
[18]; first compound 0.01581 µM
  relative viability: 0.906
[18]; first compound 0.05 µM
  relative viability: 0.813
[18]; first compound 0.1581 µM
  relative viability: 0.902
[18]; first compound 0.5 µM
  relative viability: 0.823
[19]; first compound 0.005 µM
  relative viability: 0.324
[19]; first compound 0.01581 µM
  relative viability: 0.355
[19]; first compound 0.05 µM
  relative viability: 0.322
[19]; first compound 0.1581 µM
  relative viability: 0.303
[19]; first compound 0.5 µM
  relative viability: 0.308
[20]; first compound 0.005 µM
  relative viability: 0.554
[20]; first compound 0.01581 µM
  relative viability: 0.639
[20]; first compound 0.05 µM
  relative viability: 0.638
[20]; first compound 0.1581 µM
  relative viability: 0.524
[20]; first compound 0.5 µM
  relative viability: 0.561
[21]; first compound 0.005 µM
  relative viability: 0.521
[21]; first compound 0.01581 µM
  relative viability: 0.513
[21]; first compound 0.05 µM
  relative viability: 0.508
[21]; first compound 0.1581 µM
  relative viability: 0.454
[21]; first compound 0.5 µM
  relative viability: 0.642
[22]; first compound 0.005 µM
  relative viability: 0.422
[22]; first compound 0.01581 µM
  relative viability: 0.639
[22]; first compound 0.05 µM
  relative viability: 0.51
[22]; first compound 0.1581 µM
  relative viability: 0.559
[22]; first compound 0.5 µM
  relative viability: 0.555
